Where a name gives a salt, the structure may show the parent alone.

Results on ten compounds are retold here after US20190169181A1, “FUMAGILLOL COMPOUNDS AND METHODS OF MAKING AND USING SAME” (Zafgen, Inc., priority 2016, published 2019).

The test system of experiment [1] is rat DIO model (Sprague Dawley rats on 45% High Fat diet). Nature of the experiment: 11 day rat DIO model, weight loss vs. vehicle. The class given is in vivo. The following applies: for Rat @ 0.3 mpk sc (%) weight loss vs. vehicle: 0.3 mpk sc once a day for 11 days; for Rat @ 1.0 mpk sc (%) weight loss vs. vehicle: 1.0 mpk sc once a day for 11 days. The text has this:
The objective of this study design is to investigate the efficacy of disclosed compounds in an 11 day rat DIO model used to screen compounds for pharmacologic efficacy on endpoints related to obesity and metabolism. Effects on body weight, food intake, hematology and blood chemistries were the primary readouts of this study design. Male Sprague Dawley rats, approximately 8 weeks of age, were ordered from a certified vendor and housed on irradiated corncob bedding in micro-isolator cages, on a 12-hour light-dark cycle (0700-1900) at 68-74° F. and 30-70% humidity. Rats were fed Research Diets D12451 (45% High Fat) and provided water ad libitum. Rats were received and housed in the facility for at least two or three weeks prior to start of test article administration. On Day −4 or −3, rats were randomized into study groups based on body weight and body weights were continued to be recorded daily for the duration of the study. Daily food intake was assessed starting on Study Day −2 by weighing the hopper including the food to avoid loss of food in transfer.
(§1) Compounds were formulated into a 100% DMSO stock (at 9 mg/mL) prior to the start, and further diluted into the target working concentration using the vehicle of 10% DMSO in water. Prior to test article administration, starting on Day −3 a dosing acclimation occurred with all animals receiving a subcutaneous injection of vehicle (10% DMSO) only for 3 days. Starting on Day 1, test compounds or vehicle were administered based on individual body weight, subcutaneously, once a day for 11 days. All animals were sacrificed on Day 11, approximately 2 hours following the final dosing on Day 11. After sacrifice, whole blood was collected and analyzed for hematology and blood chemistry parameters.
(§2) Compounds were tested for weight loss vs. vehicle at 0.3 and 1.0 mpk sc (mg per kg animal weight delivered subcutaneously), and the results are shown in Table 2 below.

The subject of experiment [2] is Diet Induced Obese (DIO) C57BL/6 mice. Nature of the experiment: 10 day DIO mouse model, weight loss vs. vehicle. The following applies: 240 h; for inhibition in vivo at 0.3 mg/kg: 0.3 mpk sc once a day for 10 days; for inhibition in vivo at 1 mg/kg: 1.0 mpk sc once a day for 10 days. The class given is in vivo.
Text: The objective of this study design was to investigate the efficacy of disclosed compounds in a 10 day DIO mouse model. Effects on body weight, food intake, hematology and blood chemistry were the primary readouts of this study design. Male, Diet Induced Obese (DIO) C57BL/6 mice, 19-21 weeks of age (13-15 weeks on high fat diet) were ordered from a certified vendor and upon receipt were housed on irradiated corncob bedding in micro-isolator cages on a 12-hour light-dark cycle (0700-1900) at 68-74° F. and 30-70% humidity. Mice were fed Research Diets D12492 (60% Kcal fat, 20% Kcal carbohydrate and 20% protein) and provided water ad libitum. DIO mice were received and housed in the facility for approximately two weeks prior to the start of test article administration. On Day −4 or −3, mice were randomized into study groups based on body weight and body weights were continued to be recorded daily for the duration of the study. Daily food intake was assessed starting on Study Day −2 by weighing of the food with hopper together to avoid loss of food in transfer.
as §1, with “for 10” for “for 11”, “All mice” for “All animals”, “11, 24” for “11, approximately 2”, “Day 10.” for “Day 11.”
as §2

The target in experiment [3] is T1, recombinant human MetAP2 (Homo sapiens, UniProt P50579).
T1 construct: Flag; made in house
T1 sequence (P50579 whole entry): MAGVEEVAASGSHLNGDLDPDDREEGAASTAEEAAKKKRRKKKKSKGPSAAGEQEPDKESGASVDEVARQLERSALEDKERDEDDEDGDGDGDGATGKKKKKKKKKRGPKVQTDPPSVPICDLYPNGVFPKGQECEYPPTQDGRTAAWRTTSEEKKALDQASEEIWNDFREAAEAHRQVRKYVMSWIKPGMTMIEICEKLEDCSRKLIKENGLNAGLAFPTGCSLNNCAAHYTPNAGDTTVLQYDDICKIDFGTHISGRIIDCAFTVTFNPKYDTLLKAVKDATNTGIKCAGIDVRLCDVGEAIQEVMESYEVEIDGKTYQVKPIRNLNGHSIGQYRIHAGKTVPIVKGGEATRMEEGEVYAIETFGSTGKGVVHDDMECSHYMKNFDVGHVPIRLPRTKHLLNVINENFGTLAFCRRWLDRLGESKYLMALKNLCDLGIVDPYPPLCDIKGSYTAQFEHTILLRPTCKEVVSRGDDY
Description: Recombinant human MetAP2 enzyme inhibition assay (MAS peptide / amino acid oxidase / Amplex Ultrared readout). The class given is biochemical. The following applies: Flag tagged human recombinant MetAP2, 25 minutes at 25° C. The method, then:
Compounds are tested for their capacity to inhibit recombinant human MetAP2 activity using the following assay.
Flag tagged Human recombinant MetAP2 expressed and isolated for use as the enzyme source. 10 mM stock solutions of compounds were prepared in 100% DMSO and further diluted in 100% DMSO required concentration to 1 mM stocks. The stock compound solutions and DMSO vehicle controls were diluted to target final compound concentrations using assay buffer to a final concentration of 50 mM HEPES containing 100 mM NaCl, pH adjusted to 7.5. The MAS peptide was formulated to a 7.5 mM stock in distilled water and prior to use further diluted 1:4. […] 40 μl of enzyme was mixed with 100 μl of MnCl2 then further diluted in assay buffer to a final concentration of 16 μg/ml. To test for compound effect on MetAP2 enzyme activity, 5 μl of test compound, 10 μl of MAS substrate/amino acid oxidase mixture, 10 μl of MetAP2 was added to test wells in a 384 well black plate with blank wells containing no enzyme, replaced with 10 μl of assay buffer. All compounds were tested in duplicate on two occasions on the same day.
The plate was sealed with a TopSeal A cover and mixed briefly on an orbital mixer at 900 rpm. The plate was incubated for a further 25 minutes at 25° C. A 5× stock of Amplex buffer was prepared (0.25 M sodium phosphate, pH 7.4) and stored at 4° C. […] Horse radish peroxidase was diluted in […] of Amplex buffer, 100 μl of this was combined with 50 μl of Amplex Ultrared in […] of 1× Amplex buffer to generate sufficient detection reagent for a 384 well plate. 25 μl detection reagent was added to each well of the test plate, which was re-sealed and mixed briefly on an orbital shaker. The plate was transferred to an Envision Multi-label reader and RFU measured corresponding to excitation 531 nm and emission 595 nm. At the end of the MetAP2 incubation 25 μl Amplex/HRP mixture per well was added and the plate read plate on a plate reader.

Broadly, the inhibition in vivo is how much of the control response was suppressed. Broadly, the IC50 is the concentration that gives 50% inhibition. For the compound `CNc1nnc([C@@H](NC(=O)O[C@@H]2CC[C@]3(CO3)[C@@H]([C@@]3(C)O[C@@H]3CC=C(C)C)[C@@H]2OC)C(C)C)o1` [Example 2, (3R,5S,6R)-5-methoxy-4-((2R,3R)-2-methyl-3-(3-methylbut-2-enyl)oxiran-2-yl)-1-oxaspiro[2.5]octan-6-yl (S)-2-methyl-1-(5-(methylamino)-1,3,4-oxadiazol-2-yl)propylcarbamate], in experiment [1], the “Rat @ 0.3 mpk sc (%) weight loss vs. vehicle” value stood at 0.6% and the “Rat @ 1.0 mpk sc (%) weight loss vs. vehicle” value was determined as 0.9%. Besides, in experiment [2], at 0.3 mg/kg the inhibition in vivo was 5.4% and the inhibition in vivo at 1 mg/kg amounted to 4.6%. In addition, in experiment [3], the half-maximal inhibitory concentration (IC50) was < 50 nM.
Take `CO[C@@H]1[C@H](OC(=O)N[C@H](c2nccn2C[C@@H]2CCCN2C)C(C)C)CC[C@]2(CO2)[C@H]1[C@@]1(C)O[C@@H]1CC=C(C)C` [Example 6, (3R,4S,5S,6R)-5-methoxy-4-((2R,3R)-2-methyl-3-(3-methylbut-2-enyl)oxiran-2-yl)-1-oxaspiro[2.5]octan-6-yl (S)-2-methyl-1-(1-(((S)-1-methylpyrrolidin-2-yl)methyl)-1H-imidazol-2-yl)propylcarbamate formate]: in experiment [1], the “Rat @ 0.3 mpk sc (%) weight loss vs. vehicle” value was 0.1% and the “Rat @ 1.0 mpk sc (%) weight loss vs. vehicle” value is 2.1%. Further, the inhibition in vivo at 0.3 mg/kg in experiment [2] was determined as 6.5%. Besides, the half-maximal inhibitory concentration (IC50) in experiment [3] lay within 50 to 500 nM.
As to `CO[C@@H]1[C@H](OC(=O)N[C@@H](c2cn(C[C@H]3CCN(C)C3)cn2)C(C)C)CC[C@]2(CO2)[C@H]1[C@@]1(C)O[C@@H]1CC=C(C)C` [Example 12, (3R,4S,5S,6R)-5-methoxy-4-((2R,3R)-2-methyl-3-(3-methylbut-2-enyl)oxiran-2-yl)-1-oxaspiro[2.5]octan-6-yl (R)-2-methyl-1-(1-(((S)-1-methylpyrrolidin-3-yl)methyl)-1H-imidazol-4-yl)propylcarbamate formate], in experiment [1], the “Rat @ 0.3 mpk sc (%) weight loss vs. vehicle” value amounted to 12.9% and the “Rat @ 1.0 mpk sc (%) weight loss vs. vehicle” value is on record as 18.8%. In experiment [2], this compound yielded an inhibition in vivo at 0.3 mg/kg of 9.5%. In addition, in experiment [3], the IC50 lay within 50 to 500 nM.
For `CO[C@@H]1[C@H](OC(=O)N[C@H](c2cn(C[C@@H]3CCN(C)C3)cn2)C(C)C)CC[C@]2(CO2)[C@H]1[C@@]1(C)O[C@@H]1CC=C(C)C` [Example 13, (3R,4S,5S,6R)-5-methoxy-4-((2R,3R)-2-methyl-3-(3-methylbut-2-enyl)oxiran-2-yl)-1-oxaspiro[2.5]octan-6-yl (S)-2-methyl-1-(1-(((R)-1-methylpyrrolidin-3-yl)methyl)-1H-imidazol-4-yl)propylcarbamate], in that order: 11.5%, 22%, 8.2% and 50 to 500 nM.
In the case of `CO[C@@H]1[C@H](OC(=O)N[C@H](c2cn(C[C@H]3CCN(C)C3)cn2)C(C)C)CC[C@]2(CO2)[C@H]1[C@@]1(C)O[C@@H]1CC=C(C)C` [Example 15, (3R,4S,5S,6R)-5-methoxy-4-((2R,3R)-2-methyl-3-(3-methylbut-2-en-1-yl)oxiran-2-yl)-1-oxaspiro[2.5]octan-6-yl ((S)-2-methyl-1-(1-(((S)-1-methylpyrrolidin-3-yl)methyl)-1H-imidazol-4-yl)propyl)carbamate], in experiment [1], the “Rat @ 0.3 mpk sc (%) weight loss vs. vehicle” value came to 10.6% and the “Rat @ 1.0 mpk sc (%) weight loss vs. vehicle” value was determined as 16.4%. For the same compound, in experiment [2], testing at 0.3 mg/kg gave an inhibition in vivo of 10.8% and testing at 1 mg/kg gave an inhibition in vivo of 8.4%. Also, the IC50 in experiment [3] was < 50 nM.
Regarding `CO[C@@H]1[C@H](OC(=O)N[C@@H](Cc2nnc(N)s2)C(C)C)CC[C@]2(CO2)[C@H]1[C@@]1(C)O[C@@H]1CC=C(C)C` [Example 37, (3R,4S,5S,6R)-5-methoxy-4-((2R,3R)-2-methyl-3-(3-methylbut-2-enyl)oxiran-2-yl)-1-oxaspiro[2.5]octan-6-yl (S)-1-(5-amino-1,3,4-thiadiazol-2-yl)-3-methylbutan-2-ylcarbamate], the inhibition in vivo at 0.3 mg/kg in experiment [2] came to 2.5%. For the same compound, the half-inhibitory concentration (IC50) in experiment [3] was 50 to 500 nM.
In experiment [2], `CO[C@@H]1[C@H](OC(=O)NCC(C)(C)c2nnc[nH]2)CC[C@]2(CO2)[C@H]1[C@@]1(C)O[C@@H]1CC=C(C)C` [Example 39, (3R,4S,5S,6R)-5-methoxy-4-((2R,3R)-2-methyl-3-(3-methylbut-2-enyl)oxiran-2-yl)-1-oxaspiro[2.5]octan-6-yl 2-methyl-2-(4H-1,2,4-triazol-3-yl)propylcarbamate] yielded an inhibition in vivo at 0.3 mg/kg of 3.4% and an inhibition in vivo at 1 mg/kg of 7.6%. Moreover, the half-maximal inhibitory concentration (IC50) in experiment [3] was in the range of 50 to 500 nM.
Compound `CO[C@@H]1[C@H](OC(=O)N(C)[C@H](c2cn(CC(C)C)cn2)C(C)C)CC[C@]2(CO2)[C@H]1[C@@]1(C)O[C@@H]1CC=C(C)C` [Example 40, (3R,4S,5S,6R)-5-methoxy-4-((2R,3R)-2-methyl-3-(3-methylbut-2-enyl)oxiran-2-yl)-1-oxaspiro[2.5]octan-6-yl ((S)-1-(1-isobutyl-1H-imidazol-4-yl)-2-methylpropyl)(methyl)carbamate] gave an inhibition in vivo at 0.3 mg/kg in experiment [2] of 2.3%. In addition, the IC50 in experiment [3] fell in the range of 50 to 500 nM.
For `CO[C@@H]1[C@H](OC(=O)N[C@H](c2ccc(N3CCC3)nc2)C(C)C)CC[C@]2(CO2)[C@H]1[C@@]1(C)O[C@@H]1CC=C(C)C` [Example 41, (3R,4S,5S,6R)-5-methoxy-4-((2R,3R)-2-methyl-3-(3-methylbut-2-enyl)oxiran-2-yl)-1-oxaspiro[2.5]octan-6-yl ((S)-1-(6-(azetidin-1-yl)pyridin-3-yl)-2-methylpropyl)carbamate], in that order: 11.7% and < 50 nM.
`CO[C@@H]1[C@H](OC(=O)N[C@H](c2cn(CC(C)C)cn2)C(C)C)CC[C@]2(CO2)[C@H]1[C@@]1(C)O[C@@H]1CC=C(C)C` [Example 42, (3R,4S,5S,6R)-5-methoxy-4-((2R,3R)-2-methyl-3-(3-methylbut-2-en-1-yl)oxiran-2-yl)-1-oxaspiro[2.5]octan-6-yl ((S)-1-(1-isobutyl-1H-imidazol-4-yl)-2-methylpropyl)carbamate] had an inhibition in vivo at 0.3 mg/kg in experiment [2] of 10%. Moreover, the IC50 in experiment [3] is < 50 nM.
